Experimental data from ChEMBL document CHEMBL5143555, “Potentiating the intracellular killing of Staphylococcus aureus by dihydroquinazoline analogues as NorA efflux pump inhibitor” (Bioorg Med Chem, 2022).
Values after ≈ are worked out from the molar mass of the structure shown. Active and inactive are the calls of the source. The calls are words filed in the database; no cut-off is given here.

Columns and labels:
Staphylococcus aureus [1] = assay: Antibacterial activity against Staphylococcus aureus 1199B measured after 24 hrs by Muller Hinton broth based MTT assay; format: functional
Staphylococcus aureus [2] = assay: Antibacterial activity against Staphylococcus aureus 1199 measured after 24 hrs by Muller Hinton broth based MTT assay; format: functional
Staphylococcus aureus [3] = assay: Antibacterial activity against Staphylococcus aureus K1758 measured after 24 hrs by Muller Hinton broth based MTT assay; format: functional
[4] = molecular target: T1, Quinolone resistance protein NorA (Staphylococcus aureus) (UniProt P0A0J7); assay: Inhibition of NorA in Staphylococcus aureus 1199B assessed as accumulation of norfloxacin at 3.9 ug/ml by measuring fluorescence intensity measured at 5 mins interval for 40 mins by fluorescence spectrophotometry; conditions: dose 3.9 µg/ml
T1 sequence (whole entry): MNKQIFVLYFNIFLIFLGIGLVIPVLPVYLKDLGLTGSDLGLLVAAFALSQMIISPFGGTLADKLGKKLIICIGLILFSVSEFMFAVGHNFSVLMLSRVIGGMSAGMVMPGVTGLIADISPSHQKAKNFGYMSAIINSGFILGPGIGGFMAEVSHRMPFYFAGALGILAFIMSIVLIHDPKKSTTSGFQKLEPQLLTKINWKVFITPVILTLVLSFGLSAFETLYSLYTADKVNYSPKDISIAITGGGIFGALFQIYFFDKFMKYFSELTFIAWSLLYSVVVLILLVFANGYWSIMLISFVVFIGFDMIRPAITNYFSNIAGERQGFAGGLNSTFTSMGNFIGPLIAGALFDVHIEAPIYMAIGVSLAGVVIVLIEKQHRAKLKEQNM

[5] = molecular target: T1, Quinolone resistance protein NorA (Staphylococcus aureus); assay: Inhibition of NorA in Staphylococcus aureus 1199B assessed as potentiation of norfloxacin-induced antibacterial activity by measuring Norfloxacin MIC at sub MIC
[6] = molecular target: T1, Quinolone resistance protein NorA (Staphylococcus aureus); assay: Inhibition of NorA in Staphylococcus aureus 1199B assessed as potentiation of norfloxacin-induced antibacterial activity by measuring Norfloxacin MIC at sub MIC relative to norfloxacin MIC alone
[7] = molecular target: T1, Quinolone resistance protein NorA (Staphylococcus aureus); assay: Inhibition of NorA in Staphylococcus aureus 1199B assessed as potentiation of norfloxacin-induced antibacterial activity by measuring fractional inhibitory concentration
[8] = molecular target: T1, Quinolone resistance protein NorA (Staphylococcus aureus); assay: Inhibition of NorA in Staphylococcus aureus 1199B assessed as potentiation of ethidium bromide-induced antibacterial activity by measuring ethidium bromide MIC at sub MIC
[9] = molecular target: T1, Quinolone resistance protein NorA (Staphylococcus aureus); assay: Inhibition of NorA in Staphylococcus aureus 1199B assessed as potentiation of ethidium bromide-induced antibacterial activity by measuring ethidium bromide MIC at sub MIC relative to ethidium bromide MIC alone
[10] = molecular target: T1, Quinolone resistance protein NorA (Staphylococcus aureus); assay: Inhibition of NorA in Staphylococcus aureus 1199B assessed as potentiation of ethidium bromide-induced antibacterial activity by measuring fractional inhibitory concentration
[11] = molecular target: T1, Quinolone resistance protein NorA (Staphylococcus aureus); assay: Inhibition of NorA in Staphylococcus aureus 1199B assessed as potentiation of 3.1 ug/mL norfloxacin-induced bactericidal activity by measuring log reduction in bacterial count at 7.8 ug/mL measured after 12 hrs by time-kill kinetics assay; conditions: dose 7.8 µg/ml
[12] = molecular target: T1, Quinolone resistance protein NorA (Staphylococcus aureus); assay: Inhibition of NorA in Staphylococcus aureus 1199B assessed as potentiation of ethidium bromide-induced bactericidal activity at 7.8 ug/ml measured within 8 hrs by time-kill kinetics assay; conditions: dose 7.8 µg/ml
[13] = Cytotoxicity against kidney epithelial cells (unknown origin) assessed as cell viability at 50 ug/mL measured after 24 hrs by alamar blue assay relative to control; format: toxicity, cell-based, Fetal kidney cell; conditions: at 50 µg/mL, read-out: Activity
[14] = molecular target: T1, Quinolone resistance protein NorA (Staphylococcus aureus); assay: Inhibition of NorA in Staphylococcus aureus 1199B assessed as accumulation of ethidium bromide at 3.9 ug/ml by measuring fluorescence intensity measured at 5 mins interval for 40 mins by fluorescence spectrophotometry; conditions: dose 3.9 µg/ml
[15] = molecular target: T1, Quinolone resistance protein NorA (Staphylococcus aureus); assay: Inhibition of NorA in Staphylococcus aureus 1199B assessed as potentiation of 3.1 ug/mL norfloxacin-induced bactericidal activity by measuring log reduction in bacterial count at 3.9 ug/mL measured after 24 hrs by time-kill kinetics assay; conditions: dose 3.9 µg/ml
[16] = molecular target: T1, Quinolone resistance protein NorA (Staphylococcus aureus); assay: Inhibition of NorA in Staphylococcus aureus 1199B assessed as potentiation of ethidium bromide-induced bactericidal activity at 62.5 ug/ml measured after 24 hrs by time-kill kinetics assay; conditions: dose 62.5 µg/ml

| Structure (SMILES) | MIC (Staphylococcus aureus [1]) [µg/mL] | MIC (Staphylococcus aureus [2]) [µg/mL] | MIC (Staphylococcus aureus [3]) [µg/mL] | other results |
| --- | --- | --- | --- | --- |
| CN1c2ccc(Cl)cc2C(c2ccccc2)=NC1c1ccco1 (stereo not drawn) | > 1000 | 125 (≈ 387 µM) | 250 (≈ 774 µM) | – |
| CN1c2ccc(Cl)cc2C(c2ccccc2)=NC1c1ccccc1 (stereo not drawn) | 500 (≈ 1500 µM) | 125 (≈ 376 µM) | 250 (≈ 751 µM) | Flu intensity [4]: 1560; MIC [5]: 6.2 µg/mL; fold change (FC) [6]: 8; fractional inhibitory concentration index (FICI) [7]: 0.141; MIC [8]: 12.5 µg/mL; fold change (FC) [9]: 4; fractional inhibitory concentration index (FICI) [10]: 0.266; Activity [11]: > 3 log10CFU/ml; inhibition [12]: Active; viability at 24 h, 50 ug/mL [13]: 5%; Flu intensity [14]: 143 |
| O=[N+]([O-])c1ccc(C2N=C(c3ccccc3)c3ccccc3N2)cc1 (stereo not drawn) | > 1000 | 125 (≈ 380 µM) | 250 (≈ 759 µM) | – |
| c1ccc(C2=NC(c3ccccc3)Nc3ccccc32)cc1 (stereo not drawn) | 250 (≈ 879 µM) | 125 (≈ 440 µM) | 250 (≈ 879 µM) | Flu intensity [4]: 3960; MIC [5]: 3.1 µg/mL; fold change (FC) [6]: 16; fractional inhibitory concentration index (FICI) [7]: 0.078; MIC [8]: 3.1 µg/mL; fold change (FC) [9]: 16; fractional inhibitory concentration index (FICI) [10]: 0.31; Activity [15]: > 3 log10CFU/ml; inhibition [16]: Active; viability at 24 h, 50 ug/mL [13]: 71%; Flu intensity [14]: 96.1 |
| Cc1onc(-c2ccccc2)c1C(=O)N[C@@H]1C(=O)N2[C@@H]1SC(C)(C)[C@@H]2C(=O)O [OXACILLIN] | 0.42 (≈ 1.05 µM) | 0.1 (≈ 0.249 µM) | 0.1 (≈ 0.249 µM) | – |
| CC[C@H]1OC(=O)[C@H](C)[C@@H](O[C@H]2C[C@@](C)(OC)[C@@H](O)[C@H](C)O2)[C@H](C)[C@@H](O[C@@H]2O[C@H](C)C[C@H](N(C)C)[C@H]2O)[C@](C)(O)C[C@@H](C)C(=O)[C@H](C)[C@@H](O)[C@]1(C)O [ERYTHROMYCIN] | 0.42 (≈ 0.572 µM) | 0.1 (≈ 0.136 µM) | 0.1 (≈ 0.136 µM) | – |
| COc1ccc(C2N=C(c3ccccc3)c3ccccc3N2)cc1 (stereo not drawn) | 500 (≈ 1590 µM) | 125 (≈ 398 µM) | 250 (≈ 795 µM) | – |
| Brc1ccc(C2N=C(c3ccccc3)c3ccccc3N2)cc1 (stereo not drawn) | > 1000 | 125 (≈ 344 µM) | 250 (≈ 688 µM) | – |
| CC1(C)S[C@@H]2[C@H](NC(=O)[C@H](N)c3ccc(O)cc3)C(=O)N2[C@H]1C(=O)O [AMOXICILLIN] | 0.42 (≈ 1.15 µM) | 0.05 (≈ 0.137 µM) | 0.1 (≈ 0.274 µM) | – |
| CN[C@@H]1[C@H](O[C@H]2[C@H](O[C@H]3[C@H](O)[C@@H](O)[C@H](N=C(N)N)[C@@H](O)[C@@H]3N=C(N)N)O[C@@H](C)[C@]2(O)C=O)O[C@@H](CO)[C@H](O)[C@H]1O [STREPTOMYCIN] | 3.5 (≈ 6.02 µM) | 1.7 (≈ 2.92 µM) | 0.4 (≈ 0.688 µM) | – |
| CC(=O)NC[C@H]1CN(c2ccc(N3CCOCC3)c(F)c2)C(=O)O1 [LINEZOLID] | 1.75 (≈ 5.19 µM) | 0.85 (≈ 2.52 µM) | 0.1 (≈ 0.296 µM) | – |
| Fc1ccccc1C1=NC(c2ccccc2)Nc2ccc(Cl)cc21 (stereo not drawn) | 500 (≈ 1480 µM) | 62.5 (≈ 186 µM) | 250 (≈ 742 µM) | – |
